Experimental data as given in patent EP2384752A1, “Combination preparation comprising a phosphodiesterase inhibitor and a COX inhibitor for treating cancer” (Universitätsklinikum Hamburg-Eppendorf, priority 2010, dated 2011).

What was measured:
[1] = tested on: Zelllinien des kleinzelligen Bronchialkarzinoms H69, SW2, OH1, OH3 und H82; experiment: XTT cell proliferation test, single agents Indometacin or IBMX; assay type: cell-based
Text: Vor Beginn der Versuche zur Zellproliferation wurde zunächst für jede Zelllinie eine Eichkurve erstellt, um die optimale Zellzahl pro ml für die nachfolgenden Versuchsreihen zu ermitteln. Dafür wurde das Zellproliferationskit XTT (Roche, Penzberg, Deutschland) verwendet. Hierbei wird durch ein in allen vitalen Zellen vorhandenes Enzym das gelbe Tetrazoliumsalz XTT zum orangen Salz Formazan reduziert. Somit stellt die Extinktion der jeweiligen Zellkulturprobe ein Maß für die Anzahl der vitalen Zellen dar.
Die Zelllinien wurden in sieben verschiedenen Konzentrationen zwischen 10^4 und 10^7 Zellen pro ml in Mikrotiterplatten mit 96 Vertiefungen ausgesät. In jede Vertiefung wurde zunächst 10 µl PBS (pH 7,4) vorgelegt und dann 90 µl der Zellsuspension mit der jeweiligen Zellzahl pro ml zugegeben. Für jede Zelllinie wurden sechs parallele Ansätze hergestellt. Nach 72 Stunden Inkubation unter Standardbedingungen wurden 50 µl XTT Labeling Mixture pro Vertiefung zugegeben. Nach sechs Stunden wurde die Absorption bei 450 nm in einem Dynatech MR 3.13 Mikroelisa Reader gemessen und anhand der erzielten Werte Eichkurven erstellt. Figur 1 zeigt die Eichkurven für die Zelllinien H69, SW2, OH1, OH3 und H82OH1-Zellen. Die Zellzahlen wurden so gewählt, dass sich die Zellen bei ungehindertem Wachstum in der exponentiellen Wachstumsphase befanden. So ergab sich eine Konzentration von 160.000 Zellen pro ml für die Zelllinien OH3 und SW2, 300.000 Zellen pro ml für OH1, 500.000 Zellen pro ml für H69 und 750.000 Zellen pro ml für H82.
Dieser Versuch wurde mit allen oben genannten Zelllinien durchgeführt. Dafür wurden zunächst Lösungen der einzelnen Wirkstoffe in die Vertiefungen einer 96-Loch-Mikrotiterplatte gegeben. Die in Kulturmedium vorliegenden Zellsuspensionen wurden zugegeben, sodass sich ein Gesamtvolumen von 100 µl pro Vertiefung ergab.
Die Zellzahl für die jeweiligen Zelllinien betrug für SW2 205.700 Zellen pro ml, für H82 964.000 Zellen pro ml, für OH1 385.700 Zellen pro ml, für OH3 205.700 Zellen pro ml und für H69 643.000 Zellen pro ml. Da zum Lösen von Indometacin 5% Ethanol und zum Lösen von IBMX 1 % Ethanol verwendet wurde, bestand die Kontrolle aus 70 µl Zellsuspension mit der jeweiligen Zellzahl pro ml, 20 µl Medium und 10 µl Alkoholkontrolle mit einer Konzentration von 6% Ethanol. Im Gesamtvolumen von 100 µl ergab sich somit eine Alkoholkonzentration von 0,6%. Der Leerwert bestand aus 100 µl Medium. Jede gewählte Kombination der Wirkstoffe in den unterschiedlichen Konzentrationen wurde pro Versuch sechsfach getestet.

[2] = tested on: H69 Zellen; experiment: XTT cell proliferation test, Meloxicam, Sildenafil and their combination; assay type: cell-based; settings: Meloxicam alone, compared with Indomethacin
Experimental: Die zu untersuchenden Zelllinien wurden mit den in den Figuren angegeben Konzentrationen von Indometacin und IBMX behandelt. Die Proliferationsversuche wurden in 96-Loch-Mikrotiterplatten durchgeführt; das Gesamtvolumen pro Vertiefung betrug 100 µl. 80 µl Zellsuspension wurde pro Vertiefung verwendet. Die Zellzahl der jeweils verwendeten Suspensionen betrug für SW2 180.000 Zellen pro ml, für OH1 338.000 Zellen pro ml, für OH3 180.000 Zellen pro ml und für H69 563.000 Zellen pro ml. Da zum Lösen sowohl von Indometacin 20% Ethanol als auch von IBMX 20% Ethanol verwendet wurde, bestand die Kontrolle aus 80 µl Zellsuspension mit der jeweiligen Zellzahl pro ml und 20 µl Alkoholkontrolle mit einer Konzentration von 20% Ethanol. Im Gesamtvolumen von 100 µl ergab sich so eine Alkoholkonzentration von 4%. Eine weitere Kontrolle bestand aus 80 µl Zellsuspension mit der jeweiligen Zellzahl pro ml und 20 µl Kulturmedium, um den wachstumshemmenden Effekt vom Ethanol erkennen zu können. Der Leerwert bestand aus 100 µl Kulturmedium.
H69 Zellen wurden wie in Beispiel 5 beschrieben mit Meloxicam und Sildefanil behandelt. […] Die Ergebnisse sind in Figur 10 dargestellt. Auch hier lässt sich eine signifikant synergistische Wirkung auf die Proliferation der H69-Zellen beobachten.

[3] = 72 h, read-out: Inhibierung auf einen Wert von % der Alkoholkontrolle

CC(C)Cn1c(=O)n(C)c(=O)c2[nH]cnc21 [IBMX, 1-Methyl-3-(2-methylpropyl)-7H-purine-2,6-dione]
activity at 1500 µM ([1]; 72 h, 1,5 mM IBMX, cell line not stated, read-out: Hemmung, % der Alkoholkontrolle): 51% | activity at 1250 µM ([1]; 72 h, 1,25 mM IBMX, cell line not stated, read-out: Hemmung, % der Alkoholkontrolle): 52% | activity at 2000 µM ([1]; 72 h, 2,0 mM IBMX, cell line not stated, read-out: Hemmung, % der Alkoholkontrolle): 45% | activity at 750 µM ([1]; 72 h, from 0,75 mM IBMX, cell line not stated, data not shown, read-out: Hemmung, % der Alkoholkontrolle): ~80% | Wirkung auf die verschiedenen Zellen des kleinzelligen Bronchialkarzinoms ([1]; single agent): antiproliferative Wirkung

COc1ccc2c(c1)c(CC(=O)O)c(C)n2C(=O)c1ccc(Cl)cc1 [Indometacin, 2-[1-(4-Chlorbenzoyl)-5-methoxy-2-methyl-1H-indol-3-yl]essigsäure]
activity at 200 µM [1, 3]: ~60% | activity at 300 µM [1, 3]: ~60%

Cc1cnc(NC(=O)C2=C(O)c3ccccc3S(=O)(=O)N2C)s1 [Meloxicam, 4-Hydroxy-2-methyl-N-(5-methyl-2-thiazolyl)-2H-1,2-benzothiazin-3-carboxamid-1,1-dioxid]
Wirkung bei H69-Zellen [2]: wirkt bei H69-Zellen in den gleichen Dosierungen wie Indomethacin
